Measurements published in patent publication US5714615A (priority 1994, dated 1998).
Entries after “also recorded” stand apart in the source; their conditions may differ.

How the values were obtained:
[1] = biological target: human erythrocyte AChE (Homo sapiens, UniProt P22303); assay type: biochemical
[2] = in vivo; settings: mouse, po
[3] = biological target: electric eel AChE (Electrophorus electricus, UniProt O42275); assay type: biochemical
[4] = test system: GA; set-up: species or system Male ICR mice; settings: mouse, in vivo
[5] = test system: AChE; assay type: biochemical, electric eel and human
[6] = mouse, in vivo
[7] = test system: DMTS performance; settings: monkey, in vivo; cited from earlier work
[8] = biological target: T1, electric eel acetylcholinesterase (Electrophorus electricus, UniProt O42275); settings: cited from earlier work
[9] = biological target: nicotinic receptor (Rattus norvegicus, UniProt P09483+P12390); assay: biochemical; assay type: binding
[10] = biological target: T1, electric eel acetylcholinesterase; assay type: biochemical; settings: 0.1m phosphate buffer
[11] = biological target: human erythrocyte acetylcholinesterase (Homo sapiens, UniProt P22303); assay type: biochemical; settings: erythrocyte ache
Chain of human erythrocyte acetylcholinesterase (P22303-2 with tags, fused parts or gaps limits assumed): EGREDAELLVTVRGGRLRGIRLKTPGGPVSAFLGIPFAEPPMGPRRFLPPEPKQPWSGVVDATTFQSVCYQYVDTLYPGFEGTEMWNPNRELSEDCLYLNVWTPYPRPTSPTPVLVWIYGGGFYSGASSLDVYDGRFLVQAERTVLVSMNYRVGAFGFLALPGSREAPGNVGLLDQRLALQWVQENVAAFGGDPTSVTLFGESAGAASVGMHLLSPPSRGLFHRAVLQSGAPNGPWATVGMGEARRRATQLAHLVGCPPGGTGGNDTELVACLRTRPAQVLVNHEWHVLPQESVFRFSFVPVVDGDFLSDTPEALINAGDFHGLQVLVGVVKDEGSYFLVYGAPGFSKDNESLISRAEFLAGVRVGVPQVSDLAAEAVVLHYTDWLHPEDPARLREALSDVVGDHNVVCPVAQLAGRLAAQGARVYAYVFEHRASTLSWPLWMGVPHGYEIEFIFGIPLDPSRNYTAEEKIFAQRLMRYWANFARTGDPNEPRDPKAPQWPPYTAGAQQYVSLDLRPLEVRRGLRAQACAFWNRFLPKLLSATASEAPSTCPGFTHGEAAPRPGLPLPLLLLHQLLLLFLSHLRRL

T1 sequence (O42275 24-633): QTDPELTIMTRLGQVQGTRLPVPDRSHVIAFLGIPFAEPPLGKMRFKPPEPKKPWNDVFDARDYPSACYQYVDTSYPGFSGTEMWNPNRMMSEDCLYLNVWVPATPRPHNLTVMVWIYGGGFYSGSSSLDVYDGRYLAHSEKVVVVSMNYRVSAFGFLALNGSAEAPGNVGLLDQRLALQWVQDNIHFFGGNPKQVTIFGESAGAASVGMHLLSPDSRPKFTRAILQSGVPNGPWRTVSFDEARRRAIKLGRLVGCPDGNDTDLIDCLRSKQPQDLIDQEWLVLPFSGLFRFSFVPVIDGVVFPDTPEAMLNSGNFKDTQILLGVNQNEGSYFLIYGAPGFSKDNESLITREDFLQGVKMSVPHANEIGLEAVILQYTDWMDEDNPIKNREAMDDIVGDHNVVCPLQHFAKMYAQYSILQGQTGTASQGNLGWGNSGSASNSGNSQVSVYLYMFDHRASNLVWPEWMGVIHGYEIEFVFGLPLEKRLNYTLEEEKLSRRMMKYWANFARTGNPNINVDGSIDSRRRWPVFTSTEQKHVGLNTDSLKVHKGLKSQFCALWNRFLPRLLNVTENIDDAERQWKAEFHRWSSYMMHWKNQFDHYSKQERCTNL
Chain of nicotinic receptor (P12390 25-500): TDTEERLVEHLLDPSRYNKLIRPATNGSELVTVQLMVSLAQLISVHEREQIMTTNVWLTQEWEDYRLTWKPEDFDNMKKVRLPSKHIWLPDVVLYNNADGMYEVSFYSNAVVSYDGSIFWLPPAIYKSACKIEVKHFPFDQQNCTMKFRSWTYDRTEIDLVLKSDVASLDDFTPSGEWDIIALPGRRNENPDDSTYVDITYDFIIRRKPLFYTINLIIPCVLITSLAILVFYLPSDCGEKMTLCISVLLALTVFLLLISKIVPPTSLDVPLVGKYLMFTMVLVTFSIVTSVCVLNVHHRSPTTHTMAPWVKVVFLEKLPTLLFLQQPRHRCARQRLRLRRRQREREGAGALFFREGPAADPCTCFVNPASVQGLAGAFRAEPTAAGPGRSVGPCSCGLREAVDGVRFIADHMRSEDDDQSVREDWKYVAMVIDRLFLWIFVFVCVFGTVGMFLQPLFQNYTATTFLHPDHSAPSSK
Chain of nicotinic receptor (P09483 31-630): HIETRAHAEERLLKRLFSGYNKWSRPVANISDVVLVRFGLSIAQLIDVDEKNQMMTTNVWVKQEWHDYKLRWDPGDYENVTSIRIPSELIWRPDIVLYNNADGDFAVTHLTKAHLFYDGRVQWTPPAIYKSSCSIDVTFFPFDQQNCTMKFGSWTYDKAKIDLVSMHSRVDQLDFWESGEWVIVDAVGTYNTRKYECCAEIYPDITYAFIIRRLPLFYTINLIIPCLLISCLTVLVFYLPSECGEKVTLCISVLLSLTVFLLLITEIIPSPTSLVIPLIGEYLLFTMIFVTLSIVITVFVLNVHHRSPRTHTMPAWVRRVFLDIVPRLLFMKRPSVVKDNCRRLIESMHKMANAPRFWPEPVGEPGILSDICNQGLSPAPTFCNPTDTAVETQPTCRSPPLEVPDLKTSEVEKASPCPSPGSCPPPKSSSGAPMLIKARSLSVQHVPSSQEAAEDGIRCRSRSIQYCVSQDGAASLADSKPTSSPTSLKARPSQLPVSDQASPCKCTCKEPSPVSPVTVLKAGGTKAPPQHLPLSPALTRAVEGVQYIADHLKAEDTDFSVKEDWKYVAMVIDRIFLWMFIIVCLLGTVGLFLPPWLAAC
Chain of electric eel AChE (O42275 24-633): as the sequence (O42275 24-633) above
Chain of human erythrocyte AChE (P22303-2 with tags, fused parts or gaps limits assumed): as the sequence (P22303-2 with tags, fused parts or gaps limits assumed) above

CON=Cc1c(O)ccc[n+]1C [Compound 1c, O-Methyl-N-(3-hydroxy-1-methyl-2-pyridinemethylene) hydroxylamine chloride]
inhibition of human AChE [1]: did not inhibit either enzyme at concentrations up to 1 mM | LD50 at 24 h [2]: > 3200 µmol/kg | inhibition of electric eel AChE [3]: did not inhibit either enzyme at concentrations up to 1 mM | % survival [4]: 0%

C[n+]1cccc(O)c1C=NOCc1ccccc1 [Compound 1b, O-Benzyl-N-(3-hydroxy-1-methyl-2-pyridinemethylene) hydroxylamine chloride]
mode of inhibition of AChE [5]: pure competitive inhibition | comparative drug toxicity [6]: 1b>1c

C[n+]1ccccc1C=NOCc1ccccc1 [Compound 1a, O-Benzyl-N-(1-methyl-2-pyridinemethylene) hydroxylamine chloride]
mode of inhibition of AChE [5]: pure competitive inhibition | comparative drug toxicity [6]: 1a>1b

C[n+]1ccccc1C=NNC(=O)C[n+]1ccccc1 [Compound 5b, 2-(1-Methyl-2-pyridinemethylene)-1-[2-(1-pyridinium)acetyl] hydrazine dichloride]
mode of inhibition of AChE [5]: mixed-type inhibition; also recorded: At concentrations up to 75 μM, 5b acts as a noncompetitive inhibitor; also recorded: at higher concentrations, 5b is an uncompetitive inhibitor

Clc1cccc(Cl)c1N=C1NCCN1 [Clonidine, clonidine]
delay intervals at which DMTS is improved [7]: improves DMTS performance to the greatest extent at medium delays | duration of DMTS improvement after administration [7]: at least 24 hr

CN1CCCC1c1cccnc1 (stereo not shown) [Nicotine]
improvement in DMTS performance [7]: 5-10 % points

C[n+]1cccc(O)c1C=NNC(=O)Nc1ccccc1.[Cl-] [Compound 3b, 3-Hydroxy-1-methyl-2-[[(N-phenylaminocarbonyl)hydrazono]methyl] pyridinium chloride]
mode of inhibition of AChE [5]: mixed-type inhibition; also recorded: noncompetitive kinetics

CN(C)C(=O)Oc1ccc[n+](C)c1 [Pyridostigmine, pyridostigmine]
kobs/[I] (literature value, footnote to eel column) [8]: 843 M⁻¹ s⁻¹

C[n+]1cc(O)ccc1C=NO [Compound 1g]
comparative drug toxicity [6]: small increase in toxicity | % survival [4]: 0%

C[n+]1cccc(O)c1C=NOCc1ccc(Cl)cc1 [Compound 1d, O-(p-Chlorobenzyl)-N-(3-hydroxy-1-methyl-2-pyridinemethylene) hydroxylamine chloride]
mode of inhibition of AChE [5]: pure competitive inhibition

C[N+](C)(C)CCOC(N)=O [Carbachol]
IC50 [9]: 699 nM | potency less than nicotine [9]: about 18 fold

COc1ccc(CON=Cc2c(O)ccc[n+]2C)cc1 [Compound 1e, O-(p-Methoxybenzyl)-N-(3-hydroxy-1-methyl-2-pyridinemethylene) hydroxylamine chloride]
mode of inhibition of AChE [5]: pure competitive inhibition

CNC(=O)Oc1ccc2c(c1)[C@]1(C)CCN(C)[C@@H]1N2C [Physostigmine]
kobs/[I] (eel) [10]: 140000 M⁻¹ s⁻¹ | binding to nicotinic receptors [9]: no selective binding to nicotinic receptors, even at mM concentrations | kobs/[I] (human) [11]: 19000 M⁻¹ s⁻¹ | kobs/[I] (literature value, footnote to eel column) [8]: 18500 M⁻¹ s⁻¹ | delay intervals at which DMTS is improved [7]: acts more evenly across short, medium and long delays | duration of DMTS response [7]: evokes responses only on the day of administration | improvement in DMTS performance [7]: 5-10 % points

C[n+]1cccc(O)c1C=NO [Compound 1f]
inhibition of human AChE [1]: did not inhibit either enzyme at concentrations up to 1 mM | inhibition of electric eel AChE [3]: did not inhibit either enzyme at concentrations up to 1 mM | comparative drug toxicity [6]: small increase in toxicity | % survival [4]: 0%
